From EP4644375A1, “SUBSTITUTED HYDROQUINOLINES FOR THE TREATMENT OF GLIOBLASTOMA MULTIFORME” (Molius Saglik Teknolojileri Anonim Sirketi, priority 2024, dated 2025)

Columns and labels:
[1] = system: U138-MG human glioma cell; assay: Cell proliferation analysis (MTT); format: cell-based; conditions: 10 µM, two days, MTT; for activity at 10 µM / inhibition at 10 µM: Homo sapiens, 48 h
U87-MG human glioma cell = assay: Cell proliferation analysis (MTT); format: cell-based; conditions: 10 µM, two days, MTT; for activity at 10 µM / inhibition at 10 µM: Homo sapiens, U-87 MG, 48 h
GBM xenograft rat model = assay: In vivo GBM rat model: MRI analysis of tumor volumes; conditions: GBM rats, 30 mg/kg oral, 5 days, MRI 14th vs 28th day
Method: An in Vivo study was performed to assess the therapeutic potential of TR-G002, TR-G045, TR-G053, TR-G066, TR-G071 and TR-G091 in the GBM xenograft rat model when administered orally by gavage for five consecutive days. 152 female rats of the Sprague Dawley strain were allocated to the study. Six groups of sixteen females were given dose of 30 mg/kg of the respective target compounds. […] The study design can be seen in Fig. 11 and Table 10.
Female Sprague Dawley rats (age: 6-8 weeks; weight: 255-310 g; ATADEM, Erzurum, Turkey) were utilized in the study. Rats underwent anaesthesia with 5% isoflurane, maintained at 2% isoflurane (1 L/min oxygen), and were positioned in a stereotactic frame for cell implantation (Stoelting Co., IL). […] A burr hole was drilled 1-mm anterior and 3-mm lateral to the right bregma. A microsyringe (Hamilton 1700 series) containing 5×10^4 U87-MG cells suspended in 5 µL of medium at 37 °C was advanced to a depth of 4 mm into the brain. The cells were injected at a rate of 3 µL/ min. Bone wax was used to fill the burr hole to prevent cell suspension reflux. The incision was sutured, and 1 mL of Meloxicam (5 mg/mL; Metacam, Boehringer Ingelheim Vetmedica, Ingelheim, Germany) was administered via a subcutaneous injection.
Fourteen days after inoculation, tumor development in rats was visualized and confirmed through magnetic resonance imaging (MRI). Rats confirmed to have developed tumors were then distributed into six different groups for treatment. […] 9 days after the final treatment dose, the rats underwent another MRI scan and blood and brain samples were taken under anaesthesia.
The anaesthetic was administered via an intraperitoneal route on animals fixed in the supine position with parallel hind limbs. MRI was performed using a 3 Tesla clinical scanner (Magnetom Skyra; Siemens Healthineers, Erlangen, Germany). Rats were placed in the prone position. T2-SPACE (sampling perfection with application-optimized contrast using different flip angle Evolution) sequence was obtained to view the brain in coronal and transverse planes. (TR: 6000 ms, TE: 100 ms, voxel size: 0.5 × 0.5 × 1 mm, 34 slices, slice thickness: 2 mm, slice spacing: 0.6 mm). The volume measurements of brain tumors were performed manually. One radiologist calculated the tumour volume - manually measuring tumour length (L), width (W), and height (H) - and then calculated the tumour volume using the formula 0.5236 × L × W × H (Stuppner S et al., 2020).

SMILES: CC(=O)OCC1OC(n2cc(COc3ccc4c(c3)CCC(=O)N4)nn2)[C@H](OC(C)=O)[C@@H]1OC(C)=O (stereo partly drawn) [TR-G058, (3R,4R)-2-(acetoxymethyl)-5-(4-(((2-oxo-1,2,3,4-tetrahydroquinolin-6-yl)oxy)methyl)-1H-1,2,3-triazol-1-yl)tetrahydrofuran-3,4-diyl diacetate]
- activity at 10 µM [1]: 100%
- inhibition at 10 µM [1]: 0%
- activity at 10 µM (U87-MG human glioma cell): 73%
- inhibition at 10 µM (U87-MG human glioma cell): 27%

SMILES: O=C1CCc2cc(OC(=O)c3ccc(CCl)cc3)ccc2N1 [TR-G065, 2-oxo-1,2,3,4-tetrahydroquinolin-6-yl 4-(chloromethyl)benzoate]
- activity at 10 µM [1]: 90%
- inhibition at 10 µM [1]: 10%
- activity at 10 µM (U87-MG human glioma cell): 73%
- inhibition at 10 µM (U87-MG human glioma cell): 27%

SMILES: CCCN1C(=O)CCc2cc(OCCCCc3nnnn3C3CCCCC3)ccc21 [TR-G105, 6-(4-(1-cyclohexyl-1H-tetrazol-5-yl)butoxy)-1-propyl-3,4-dihydroquinolin-2(1H)-one]
- activity at 10 µM [1]: 73%
- inhibition at 10 µM [1]: 28%
- activity at 10 µM (U87-MG human glioma cell): 48%
- inhibition at 10 µM (U87-MG human glioma cell): 52%

SMILES: O=C1CCc2cc(OC(=O)CN3CCN(c4ncccn4)CC3)ccc2N1 [TR-G023, 2-oxo-1,2,3,4-tetrahydroquinolin-6-yl 2-(4-(pyrimidin-2-yl)piperazin-1-yl)acetate]
- activity at 10 µM [1]: 99%
- inhibition at 10 µM [1]: 1%
- activity at 10 µM (U87-MG human glioma cell): 83%
- inhibition at 10 µM (U87-MG human glioma cell): 17%

SMILES: O=C(OCCCCOc1ccc2c(c1)CCC(=O)N2CCCCOC(=O)c1ccccc1)c1ccccc1 [TR-G013A, 4-(6-(4-(benzoyloxy)butoxy)-2-oxo-3,4-dihydroquinolin-1(2H)-yl)butyl benzoate]
- activity at 10 µM [1]: 53%
- inhibition at 10 µM [1]: 47%
- activity at 10 µM (U87-MG human glioma cell): 46%
- inhibition at 10 µM (U87-MG human glioma cell): 54%

SMILES: O=C1CCc2cc(OCC(=O)N3CCN(c4ccc(C(F)(F)F)cc4)CC3)ccc2N1 [TR-G087, 6-(2-oxo-2-(4-(4-(trifluoromethyl)phenyl)piperazin-1-yl)ethoxy)-3,4-dihydroquinolin-2(1H)-one]
- activity at 10 µM [1]: 55%
- inhibition at 10 µM [1]: 45%
- activity at 10 µM (U87-MG human glioma cell): 58%
- inhibition at 10 µM (U87-MG human glioma cell): 42%

SMILES: CCOC(=O)COc1ccc2c(c1)CCC(=O)N2 [TR-G012, ethyl 2-((2-oxo-1,2,3,4-tetrahydroquinolin-6-yl)oxy)acetate]
- activity at 10 µM [1]: 85%
- inhibition at 10 µM [1]: 15%
- activity at 10 µM (U87-MG human glioma cell): 71%
- inhibition at 10 µM (U87-MG human glioma cell): 29%

SMILES: O=C1CCc2cc(OCCCCc3nnnn3C3CCCCC3)ccc2N1CCCc1ccccc1 [TR-G106, 6-(4-(1-cyclohexyl-1H-tetrazol-5-yl)butoxy)-1-(3-phenylpropyl)-3,4-dihydroquinolin-2(1H)-one]
- activity at 10 µM [1]: 66%
- inhibition at 10 µM [1]: 35%
- activity at 10 µM (U87-MG human glioma cell): 73%
- inhibition at 10 µM (U87-MG human glioma cell): 27%

SMILES: COc1ccccc1NC(=O)Oc1ccc2c(c1)CCC(=O)N2 [TR-G132, 2-oxo-1,2,3,4-tetrahydroquinolin-6-yl (2-methoxyphenyl)carbamate]
- activity at 10 µM [1]: 73%
- inhibition at 10 µM [1]: 27%
- activity at 10 µM (U87-MG human glioma cell): 78%
- inhibition at 10 µM (U87-MG human glioma cell): 22%

SMILES: O=C1CCc2cc(OC(=O)Nc3ccccc3)ccc2N1 [TR-G131, 2-oxo-1,2,3,4-tetrahydroquinolin-6-yl phenylcarbamate]
- activity at 10 µM [1]: 54%
- inhibition at 10 µM [1]: 46%
- activity at 10 µM (U87-MG human glioma cell): 79%
- inhibition at 10 µM (U87-MG human glioma cell): 21%

SMILES: O=C(COc1ccc2c(c1)CCC(=O)N2)N/N=C1\C(=O)Nc2ccc(F)cc21 [TR-G050, (Z)-N'-(5-fluoro-2-oxoindolin-3-ylidene)-2-((2-oxo-1,2,3,4-tetrahydroquinolin-6-yl)oxy)acetohydrazide]
- activity at 10 µM [1]: 54%
- inhibition at 10 µM [1]: 46%
- activity at 10 µM (U87-MG human glioma cell): 69%
- inhibition at 10 µM (U87-MG human glioma cell): 31%

SMILES: CC(C)N(C(=O)Oc1ccc2c(c1)CCC(=O)N2)C(C)C [TR-G129, 2-oxo-1,2,3,4-tetrahydroquinolin-6-yl diisopropylcarbamate]
- activity at 10 µM [1]: 74%
- inhibition at 10 µM [1]: 26%
- activity at 10 µM (U87-MG human glioma cell): 81%
- inhibition at 10 µM (U87-MG human glioma cell): 19%

SMILES: O=C1CCc2cc(OCC3CC3)ccc2N1 [TR-G010, 6-(cyclopropylmethoxy)-3,4-dihydroquinolin-2(1H)-one]
- activity at 10 µM [1]: 74%
- inhibition at 10 µM [1]: 26%
- activity at 10 µM (U87-MG human glioma cell): 74%
- inhibition at 10 µM (U87-MG human glioma cell): 26%

SMILES: O=C1CCc2cc(OCc3cn(CCCN4C(=O)c5ccccc5C4=O)nn3)ccc2N1 [TR-G117, 2-(3-(4-(((2-oxo-1,2,3,4-tetrahydroquinolin-6-yl)oxy)methyl)-1H-1,2,3-triazol-1-yl)propyl)isoindoline-1,3-dione]
- activity at 10 µM [1]: 106%
- inhibition at 10 µM [1]: -6%
- activity at 10 µM (U87-MG human glioma cell): 96%
- inhibition at 10 µM (U87-MG human glioma cell): 4%

SMILES: O=C1CCc2cc(OCc3cc(-c4ccc(Cl)cc4)no3)ccc2N1 [TR-G084, 6-((3-(4-chlorophenyl)isoxazol-5-yl)methxy)-3,4-dihydroquinolin-2(1H)-one]
- Cell Proliferation (%) [1]: 71%
- inhibition at 10 µM [1]: 30%
- Cell Proliferation (%) (U87-MG human glioma cell): 65%
- inhibition at 10 µM (U87-MG human glioma cell): 35%

SMILES: O=C1CCc2cc(OC(=O)Nc3ccc(F)cc3)ccc2N1 [TR-G140, 2-oxo-1,2,3,4-tetrahydroquinolin-6-yl (4-fluorophenyl)carbamate]
- activity at 10 µM [1]: 91%
- inhibition at 10 µM [1]: 9%
- activity at 10 µM (U87-MG human glioma cell): 80%
- inhibition at 10 µM (U87-MG human glioma cell): 20%

SMILES: COc1ccc(NC(=O)COc2ccc3c(c2)CCC(=O)N3)cc1OC [TR-G077, N-(3,4-dimethoxyphenyl)-2-((2-oxo-1,2,3,4-tetrahydroquinolin-6-yl)oxy)acetamide]
- activity at 10 µM [1]: 88%
- inhibition at 10 µM [1]: 12%
- activity at 10 µM (U87-MG human glioma cell): 88%
- inhibition at 10 µM (U87-MG human glioma cell): 12%

SMILES: O=C1CCc2cc(OS(=O)(=O)c3ccc(Br)cc3)ccc2N1 [TR-G048, 2-oxo-1,2,3,4-tetrahydroquinolin-6-yl 4-bromobenzenesulfonate]
- activity at 10 µM [1]: 61%
- inhibition at 10 µM [1]: 39%
- activity at 10 µM (U87-MG human glioma cell): 69%
- inhibition at 10 µM (U87-MG human glioma cell): 31%

SMILES: COc1ccc(C(=O)Oc2ccc3c(c2)CCC(=O)N3)c(OC)c1 [TR-G009, 2-oxo-1,2,3,4-tetrahydroquinolin-6-yl 2,4-dimethoxybenzoate]
- activity at 10 µM [1]: 87%
- inhibition at 10 µM [1]: 13%
- activity at 10 µM (U87-MG human glioma cell): 72%
- inhibition at 10 µM (U87-MG human glioma cell): 28%

SMILES: O=C1CCc2cc(OCCCCOC(=O)c3ccccc3)ccc2N1 [TR-G013, 4-((2-oxo-1,2,3,4-tetrahydroquinolin-6-yl)oxy)butyl benzoate]
- activity at 10 µM [1]: 78%
- inhibition at 10 µM [1]: 22%
- activity at 10 µM (U87-MG human glioma cell): 71%
- inhibition at 10 µM (U87-MG human glioma cell): 29%

SMILES: O=C(COc1ccc2c(c1)CCC(=O)N2)Nc1ccc([N+](=O)[O-])cn1 [TR-G122, N-(5-nitropyridin-2-yl)-2-((2-oxo-1,2,3,4-tetrahydroquinolin-6-yl)oxy)acetamide]
- activity at 10 µM [1]: 90%
- inhibition at 10 µM [1]: 11%
- activity at 10 µM (U87-MG human glioma cell): 82%
- inhibition at 10 µM (U87-MG human glioma cell): 18%

SMILES: O=C1CCc2cc(OS(=O)(=O)c3ccc([N+](=O)[O-])cc3)ccc2N1 [TR-G046, 2-oxo-1,2,3,4-tetrahydroquinolin-6-yl 4-nitrobenzenesulfonate]
- activity at 10 µM [1]: 76%
- inhibition at 10 µM [1]: 24%
- activity at 10 µM (U87-MG human glioma cell): 60%
- inhibition at 10 µM (U87-MG human glioma cell): 40%
- tumor size (GBM xenograft rat model): reduced the tumor size

SMILES: C=CCCCOc1ccc2c(c1)CCC(=O)N2 [TR-G144, 6-(pent-4-en-i-yloxy)-3,4-dihydroquinolin-2(1H)-one]
- activity at 10 µM [1]: 70%
- inhibition at 10 µM [1]: 30%
- activity at 10 µM (U87-MG human glioma cell): 61%
- inhibition at 10 µM (U87-MG human glioma cell): 39%

SMILES: O=C1CCc2cc(OC(=O)N3CCCC3)ccc2N1 [TR-G061, 2-oxo-1,2,3,4-tetrahydroquinolin-6-yl pyrrolidine-1-carboxylate]
- activity at 10 µM [1]: 92%
- inhibition at 10 µM [1]: 8%
- activity at 10 µM (U87-MG human glioma cell): 84%
- inhibition at 10 µM (U87-MG human glioma cell): 16%

SMILES: C=CC(=O)N(NC(=O)COc1ccc2c(c1)CCC(=O)N2)C(=O)C=C [TR-G040, N-acryloyl-N'-(2-((2-oxo-1,2,3,4-tetrahydroquinolin-6-yl)oxy)acetyl)acrylohydrazide]
- Cell Proliferation (%) [1]: 98%
- inhibition at 10 µM [1]: 2%
- Cell Proliferation (%) (U87-MG human glioma cell): 91%
- inhibition at 10 µM (U87-MG human glioma cell): 9%

SMILES: NNC(=O)COc1ccc2c(c1)CCC(=O)N2 [TR-G019, 2-((2-oxo-1,2,3,4-tetrahydroquinolin-6-yl)oxy)acetohydrazide]
- activity at 10 µM [1]: 75%
- inhibition at 10 µM [1]: 25%
- activity at 10 µM (U87-MG human glioma cell): 75%
- inhibition at 10 µM (U87-MG human glioma cell): 25%
